Experimental data published in patent US20180147131A1, “COMPOSITION FOR ORAL CAVITY AND FOOD PRODUCT, OR BEVERAGE” (KABUSHIKI KAISHA SANGI, priority 2015, published 2018).

Assay: Remineralization test (artificial incipient caries, contact microradiogram, computer image analysis)
Parameters: species or system bovine
Conditions: conclusion from the remineralization tests of Examples and Comparative Examples
Source text: In order to confirm the remineralizing effect, a previously made artificial incipient caries test sample was used. For the making of the artificial incipient caries test sample, enamel on the labial surface of the crown portion of a bovine front tooth was used. The enamel surface was abraded with #1000, #2400, and #4000 abrasive paper. A window of about 5×3 mm was made with Nail Enamel (Manufactured by Shiseido Company, Limited) at a site to be tested, on the abraded enamel surface, and immersed in a 0.1 M lactate buffer solution (pH 4.8, 3.0 mmM CaCl2, 1.8 mmM KH2PO4, 1.0% CMC) at 37° C. for 4 days to make artificial incipient caries. […]
The effect of remineralizing the artificial incipient caries site was analyzed using a computer.
In image analysis by the computer, the amount of the remineralized mineral was calculated based on the formula of Angmer et al. (B. Angmer, D. Carlstrom and J. E. Glas: Studies on Ultrastructure of Dental Enemel IV: The Mineralization of normal Human Enamel, J. Ultrastructure. Res. 8, 12-23, 1963), and the amounts of the mineral lost AZ (% volume mineral·μm) at the control surface and treated surface of each section were calculated according to the method of Damato et al. (F. A. Damato, R. Stang and K. W. Stephen: Effect of Fluoride Concentration on Reminerelization of Carious Enamel: an in vitro pH-Cycling Study, Caries Res, 24, 174-180, 1990). […]

sodium chondroitin sulfate
tooth remineralizing effect (in words): little tooth remineralizing effect
